Test results as given in patent publication US20240174690A1, “ANNULATED 2-AMINO-3-CYANO THIOPHENES AND DERIVATIVES FOR THE TREATMENT OF CANCER” (BOEHRINGER INGELHEIM INTERNATIONAL GMBH, priority 2021, published 2024).
pIC50: −log10 of the molar value.

Tests used:
[1] = system: LOVO cells; test: LOVO CTG proliferation assay (120 h) (CRC, G13D); assay type: cell-based; conditions: Homo sapiens, CTG 120 h
Experimental: LOVO CTG Proliferation Assay (120 h) (CRC, G13D)
LOVO cells (ATCC CCL-229) are dispensed into 384-well plates, flat and clear bottom (Greiner, PNr. 781091) at a density of 1000 cells per well in 60 μL DMEM (Sigma D6429)+10% Fetal Calf Serum (HyClone, PNr.: SH30084.03) and incubated at 37° C. in a CO2 incubator overnight. The next day, compounds (10 mM stock in DMSO) are added with the ECHO acoustic liquid handler system (Beckman Coulter), including DMSO controls. Plates are incubated for 120 h, and cell viability is measured using CellTiter-Glo luminescent cell viability reagent (Promega product code G7570). Viability (stated as percent of control) is defined as relative luminescence units RLU of each well divided by the RLU of cells in DMSO controls. IC50 values are determined from viability measurements by non-linear regression using a four-parameter model.

[2] = Caco-2 assay (permeability PappAB, PappBA, efflux ratio); assay type: in vitro ADME; conditions: human, Caco-2, 10 μM test compound, pH 7.4; for Papp A→B at 90 min, 10 μM: apical to basolateral; for efflux ratio at 90 min, 10 μM: efflux ratio PappBA/PappAB, read-out: Caco ER
Description: The assay provides information on the potential of a compound to pass the cell membrane, on the extent of oral absorption as well as on whether the compound is actively transported by uptake and/or efflux transporters. Permeability measurements across polarized, confluent Caco-2 cell monolayers grown on permeable filter supports (Corning, catalog #3391) are used. […] The receiver and donor compartments contain 0.25% bovine serum albumine (BSA) in assay buffer. Passive diffusion and/or active transport of compounds across the monolayer is measured in both apical to basolateral (a-b) and basolateral to apical (b-a) direction. a-b permeability (PappAB) represents drug absorption from the intestine into the blood and b-a permeability (PappBA) drug secretion from the blood back into the intestine via both passive permeability as well as active transport mechanisms mediated by efflux and uptake transporters that are expressed on the Caco-2 cells. After a pre-incubation of 25-30 min at 37° C., at predefined time points (0, 30, 60 and 90 min), samples were taken from the receiver and donor compartment, respectively. Concentrations of test compounds in samples were measured by HPLC/MS/MS, samples from the donor compartment were diluted 1:50 (v:v) with assay buffer, samples from receiver compartment were measured without dilution.
Apparent permeabilities in a-b (PappAB) and b-a (PappBA) directions are calculated according to the formula:
[formula] • Vrec [mL]: buffer volume in receiver compartment • Cdon [μmol/mL]: concentration of test compound in donor compartment at t=0 • ΔCrec: difference between concentrations of test compound in receiver compartment at start and end of incubation time • Δt: Incubation time • Vrec·ΔCrec/Δt [μmol/min]: Amount of compound transferred to receiver compartment per time • A [cm^2]: filter surface
Caco-2 efflux ratios (ER) are calculated as the ratio of PappBA/PappAB.

[3] = system: KRAS G12D-dependent Ba/F3 cells; test: Ba/F3 proliferation assay, KRAS G12D; assay type: cell-based; conditions: Mus musculus, BaF3, 72 h, AlamarBlue
Experimental: Plasmids containing KRASG12 mutants (i.e. […], G12C, G12V) are obtained from GeneScript. To generate KRASG12-dependent Ba/F3 models, Ba/F3 cells are transduced with retroviruses containing vectors that harbor KRASG12 isoforms. Platinum-E cells (Cell Biolabs) are used for retrovirus packaging. Retrovirus is added to Ba/F3 cells. To ensure infection, 4 μg/mL polybrene is added and cells are spinfected. […] Cells with an infection efficiency of 10% to 20% are further cultivated and puromycin selection with 1 μg/mL is initiated. As a control, parental Ba/F3 cells are used to show selection status. Selection is considered successful when parental Ba/F3 cells cultures died. To evaluate the transforming potential of KRASG12 mutations, the growth medium is no longer supplemented with IL-3. Ba/F3 cells harboring the empty vector are used as a control. Approximately ten days before conducting the experiments, puromycin is left out.
Compounds are added using an Access Labcyte Workstation with a Labcyte Echo 550 or 555 accoustic dispenser. All treatments are performed in technical duplicates. […] AlamarBlue™ (ThermoFisher), a viability stain, is added and fluorescence measured in the PerkinElmer Envision HTS Multilabel Reader. The raw data are imported into and analyzed with the Boehringer Ingelheim proprietary software MegaLab (curve fitting based on the program PRISM, GraphPad Inc.).

Compound | pIC50 [1] | Papp A→B at 90 min, 10 μM [2] [×10⁻⁶ cm/s] | efflux ratio at 90 min, 10 μM [2] | pIC50 [3]
C[C@H](Oc1cc(N2CCNC3(CC3)C2)nc(-c2onc3c2CCC[C@@]32CCCc3sc(N)c(C#N)c32)n1)[C@@H]1CCCN1C [I-5] | 5.79 | 1.1 | 29 | 8.52
C[C@H](Oc1cc(N2C[C@H](C)N[C@@H](C)C2)nc(-c2onc3c2CCC[C@@]32CCCc3sc(N)c(C#N)c32)n1)[C@@H]1CCCN1C [I-6] | 5.91 | 2.9 | 15 | 7.85
C[C@H]1CN(C)CCCN1c1cc(N2CCN(C)CC2)nc(-c2onc3c2CCC[C@@]32CCCc3sc(N)c(C#N)c32)n1 [I-7] | 5.55 |  |  | 6.72
C[C@H](Oc1cc(N2C[C@H](C)NC3(CC3)C2)nc(-c2onc3c2CCC[C@@]32CCCc3sc(N)c(C#N)c32)n1)[C@@H]1CCCN1C [I-8] | 6.53 |  |  | 8.40
C[C@H](Oc1cc(N2CCN3CCC3C2)nc(-c2onc3c2CCC[C@@]32CCCc3sc(N)c(C#N)c32)n1)[C@@H]1CCCN1C (stereo partly drawn) [I-9] | 6.19 |  |  | 7.04
C[C@H](Oc1cc(N2CCNCC23CCOC3)nc(-c2onc3c2CCC[C@@]32CCCc3sc(N)c(C#N)c32)n1)[C@@H]1CCCN1C (stereo partly drawn) [I-10] |  | < 2.1 |  | 8.05
C[C@H](Oc1cc(N2CC[C@H](N(C)C)C2)nc(-c2onc3c2CCC[C@@]32CCCc3sc(N)c(C#N)c32)n1)[C@@H]1CCCN1C [I-11] | 5.77 | < 4.1 |  | 7.62
C[C@H](Oc1cc(N2CC[C@H](N(C)C)C2)nc(-c2noc3c2CCC[C@@]32CCCc3sc(N)c(C#N)c32)n1)[C@@H]1CCCN1C [II-49] | 6.19 | 4.7 | 10.8 | 7.80
C[C@H](Oc1cc(N2CCNC[C@]23CCOC3)nc(-c2noc3c2CCC[C@@]32CCCc3sc(N)c(C#N)c32)n1)[C@@H]1CCCN1C [II-50] | 5.79 | 0.3 | 111 | 8.15
C[C@H](Oc1cc(N2CCNC[C@@]23CCOC3)nc(-c2noc3c2CCC[C@@]32CCCc3sc(N)c(C#N)c32)n1)[C@@H]1CCCN1C [II-51] | 6.11 |  |  | 7.43
C[C@H](Oc1cc(-n2cc3c(n2)CCNC3)nc(-c2noc3c2CCC[C@@]32CCCc3sc(N)c(C#N)c32)n1)[C@@H]1CCCN1C [II-53] | 6.31 | 1.5 | 22 | 7.24
C[C@H](Oc1cc(N2CCNC3(CC3)C2)nc(-c2noc3c2CCC[C@@]32CCCc3sc(N)c(C#N)c32)n1)[C@@H]1CCCN1C [II-54] | 6.27 | < 1.1 |  | 9.00
C[C@H](Oc1cc(N2CCN(C)CC2)nc(-c2noc3c2CCC[C@@]32CCCc3sc(N)c(C#N)c32)n1)[C@@H]1CCCN1C [II-55] | 5.96 | 3.5 | 5.4 | 7.20
C[C@H](Oc1cc(N2CCOC3(CC3)C2)nc(-c2noc3c2CCC[C@@]32CCCc3sc(N)c(C#N)c32)n1)[C@@H]1CCCN1C [II-61] | 6.56 |  |  | 7.26
C[C@H](Oc1cc(N2Cc3cnn(C)c3C2)nc(-c2noc3c2CCC[C@@]32CCCc3sc(N)c(C#N)c32)n1)[C@@H]1CCCN1C [II-63] | 6.19 |  |  | 6.58
C[C@H](Oc1cc(N2CCNC2=O)nc(-c2noc3c2CCC[C@@]32CCCc3sc(N)c(C#N)c32)n1)[C@@H]1CCCN1C [II-64] | 7.02 |  |  | 7.96
C[C@H](Oc1cc(-n2cnc3cccnc32)nc(-c2noc3c2CCC[C@@]32CCCc3sc(N)c(C#N)c32)n1)[C@@H]1CCCN1C [II-65] | 6.54 |  |  | 6.91
C[C@H](Oc1cc(C2=CCOCC2)nc(-c2noc3c2CCC[C@@]32CCCc3sc(N)c(C#N)c32)n1)[C@@H]1CCCN1C [II-67] | 7.31 |  |  | 7.42

Compound | pIC50 [1] | Papp A→B at 90 min, 10 μM [2] [×10⁻⁶ cm/s] | efflux ratio at 90 min, 10 μM [2] | pIC50 [3]
C[C@H](Oc1cc(N2CCCC3(COC3)C2)nc(-c2noc3c2CCC[C@@]32CCCc3sc(N)c(C#N)c32)n1)[C@@H]1CCCN1C [II-72] | 7.26 |  |  | 7.41
C[C@H](Oc1cc(N2CCCC2=O)nc(-c2noc3c2CCC[C@@]32CCCc3sc(N)c(C#N)c32)n1)[C@@H]1CCCN1C [II-73] | 6.60 |  |  | 7.80
C[C@H](Oc1cc(-c2cnn(C)c2)nc(-c2noc3c2CCC[C@@]32CCCc3sc(N)c(C#N)c32)n1)[C@@H]1CCCN1C [II-74] | 6.50 |  |  | 7.09
C[C@H](Oc1cc(N2CCOC3(COC3)C2)nc(-c2noc3c2CCC[C@@]32CCCc3sc(N)c(C#N)c32)n1)[C@@H]1CCCN1C [II-77] | 7.41 |  |  | 7.55
C[C@H](Oc1cc(-c2ccncc2)nc(-c2noc3c2CCC[C@@]32CCCc3sc(N)c(C#N)c32)n1)[C@@H]1CCCN1C [II-78] | 6.76 |  |  | 7.06
Cc1nccn1-c1cc(O[C@@H](C)[C@@H]2CCCN2C)nc(-c2noc3c2CCC[C@@]32CCCc3sc(N)c(C#N)c32)n1 [II-79] | 6.97 |  |  | 7.35
C[C@H](Oc1cc(-c2cncs2)nc(-c2noc3c2CCC[C@@]32CCCc3sc(N)c(C#N)c32)n1)[C@@H]1CCCN1C [II-80] | 6.25 |  |  | 7.39
C[C@H](Oc1cc(-c2ccn(C3COC3)n2)nc(-c2noc3c2CCC[C@@]32CCCc3sc(N)c(C#N)c32)n1)[C@@H]1C[C@H](F)CN1C [II-83] | 5.66 |  |  | 7.48
C[C@H](Oc1cc(-c2ccn(-c3ccsc3)n2)nc(-c2noc3c2CCC[C@@]32CCCc3sc(N)c(C#N)c32)n1)[C@@H]1CCCN1C [II-84] | 6.54 |  |  | 7.10
C[C@H](Oc1cc(N2CCc3cccnc32)nc(-c2noc3c2CCC[C@@]32CCCc3sc(N)c(C#N)c32)n1)[C@@H]1CCCN1C [II-90] | 6.13 |  |  | 6.40
C[C@H](Oc1cc(-n2cccc3cnnc2-3)nc(-c2noc3c2CCC[C@@]32CCCc3sc(N)c(C#N)c32)n1)[C@@H]1CCCN1C [II-92] | 6.33 |  |  | 6.92
C[C@H](Oc1cc(-n2ccnc2Cl)nc(-c2noc3c2CCC[C@@]32CCCc3sc(N)c(C#N)c32)n1)[C@@H]1CCCN1C [II-93] | 6.87 |  |  | 7.37
C[C@H](Oc1cc(-c2cn(C3COC3)nn2)nc(-c2noc3c2CCC[C@@]32CCCc3sc(N)c(C#N)c32)n1)[C@@H]1CCCN1C [II-100] | 7.08 |  |  | 7.25
C[C@H](Oc1cc(-n2ccc(C#N)n2)nc(-c2noc3c2CCC[C@@]32CCCc3sc(N)c(C#N)c32)n1)[C@@H]1CCCN1C [II-102] | 7.12 |  |  | 7.85
Cc1nc(-c2cc(O[C@@H](C)[C@@H]3CCCN3C)nc(-c3noc4c3CCC[C@@]43CCCc4sc(N)c(C#N)c43)n2)cs1 [II-103] |  |  |  | 7.68
C[C@H](Oc1cc(-c2ccn3ncnc3c2)nc(-c2noc3c2CCC[C@@]32CCCc3sc(N)c(C#N)c32)n1)[C@@H]1CCCN1C [II-104] |  |  | 4.2 | 7.11
C[C@H](Oc1cc(-c2cn(C3CCOCC3)nn2)nc(-c2noc3c2CCC[C@@]32CCCc3sc(N)c(C#N)c32)n1)[C@@H]1CCCN1C [II-115] |  |  |  | 6.88
C[C@H](Oc1cc(-n2ccncc2=O)nc(-c2noc3c2CCC[C@@]32CCCc3sc(N)c(C#N)c32)n1)[C@@H]1CCCN1C [II-116] | 8.10 |  |  | 7.52
